The values below come from patent US20240294489A1 (Captor Therapeutics S.A., priority 2020, published 2024).

Each structure is given as a SMILES string.

Type in all cases: cell-based
For one assay, the system named is 22Rv1. Put plainly: Cell viability, additional cell lines (CellTiter-Glo), 22Rv1. Conditions: Homo sapiens, 22Rv1, 72 h. The protocol: (§1) Tumor cells are grown at 37° C. in a humidified atmosphere with 5% CO2 in RPMI 1640 medium, supplemented with 10% (v/v) fetal calf serum and 50 μg/ml gentamicin for up to 20 passages, and are passaged once or twice weekly.
(§2) Cells are harvested from exponential phase cultures, counted and plated in 96 well flat-bottom microtiter plates at a cell density depending on the cell line's growth rate (4,000-20,000 cells/well depending on the cell line's growth rate, up to 60,000 for hematological cancer cell lines) in RPMI 1640 medium supplemented with 10% (v/v) fetal calf serum and 50 μg/ml gentamicin (140 μl/well). Cultures are incubated at 37° C. and 5% CO2 in a humidified atmosphere. After 24 h, 10 μl of test compounds or control medium are added and left on the cells for another 72 h. Compounds are serially diluted in DMSO, transferred in cell culture medium, and added to the assay plates by using a Tecan Freedom EVO 200 robotic platform. The DMSO concentration is kept constant at 0.3% v/v across the assay plate. Viability of cells is quantified by the CellTiter-Glo® cell viability assay (Promega G8462). After incubation of cells, 100 μl of CellTiter-Glo® One Solution Assay reagent are added to each well. Plates are shaken for 2 minutes to induce cell lysis and incubated for 20 minutes prior to reading luminescence (LU) by using the EnVision® Xcite multilabel plate reader (Perkin Elmer). […]
In general terms: Cellular ATP, detected with luciferase, serves as a proxy for viable cell number.

The test system of a further assay is MOLP-2. The assay is described as follows: Cell viability, additional cell lines (CellTiter-Glo), MOLP-2. Conditions: MOLP-2, 72 h. As to the method: as §1, §2
Another assay deals with T1, Aiolos (IKZF3) (Homo sapiens, UniProt Q96SW2+Q9UKT9).
T1 construct: Aiolos degradation in the H929 cell line was investigated; endogenous in cells; host or cells: H929
The assay is described as follows: Aiolos degradation assay, H929 cell line. Conditions: H929 cells, 20 μM, 24 h. The protocol: (§3) Cells were seeded on 6- or 12-well plates, and the compounds to be tested were added at the desired concentration range. […] After 24 h incubation (37° C., 5% CO2), cells were harvested, washed and cell lysates were prepared using RIPA lysis buffer. The amount of protein was determined via BCA assay, and the appropriate quantity was then loaded on the precast gel for the protein separation. After primary and secondary Ab staining, the membranes were washed and signals developed. The densitometry analysis was implemented to obtain the numeric values used later in the protein level evaluation process.

A further assay deals with UOC-M1. Put plainly: Cell viability, additional cell lines (CellTiter-Glo), UOC-M1. Conditions: UOC-M1, 72 h. As to the method:
as §1, §2

The test system of the next assay is IM-9. The assay is described as follows: Cell viability, additional cell lines (CellTiter-Glo), IM-9. To be noted: Homo sapiens, IM-9, 72 h; read-out: Absolute IC50. The protocol: as §1, §2
Another assay concerns HEP-3B. The assay is described as follows: Cell viability, additional cell lines (CellTiter-Glo), HEP-3B. Conditions: Homo sapiens, Hep3B, 72 h. The protocol: as §1, §2
In assay [1] the test system is Kelly cells. The assay is described as follows: Cell survival clonogenic assay, Kelly. To be noted: 0.1-10 μM, crystal violet staining after 9-10 days. The protocol: To determine the ability of a single cell to form a colony (defined as a cluster of at least 50 cells), Kelly and Hep3B cells were maintained in RPM11640 (Kelly) or EMEM (Hep3B) medium, supplemented with penicillin/streptomycin and 10% FBS. The cells were counted and seeded on the 6-well plates, at the density of 1×10^3 cells per well, the compounds to be tested were added at the desired concentration range, and the cells were cultured at 37° C./5% CO2. After colony formation (9-10 days), the cells were washed and treated with 6.0% glutaraldehyde and 0.5% crystal violet mix for 30 min., followed by rinsing with water and drying at room temperature (RT).

Assay [2] has as its system Kelly cells. Put plainly: Cell viability CTG assay, Kelly. To be noted: 72 h, 0.001-50 μM, read-out: Kelly Geomean absolute IC50 by molecule, 72 H. The protocol:
The effect of various compounds of the invention and various reference compounds on cell viability in various cell lines was investigated, using the Cell Viability—CTG Assay Protocol below. Hep3B, Kelly, H929, KG-1 and SNU-398 cells were maintained in respective cell medium (see Table 8, below). The cells were seeded on the 96-well or 384-white plates, and the compounds to be tested were added at the desired concentration range. Compounds are diluted in DMSO, and the DMSO concentration is kept constant at 0.25% v/v across the assay plate. After 72 h incubation (37° C., 5% CO2), CellTiter-Glo® Reagent (Promega/G7570) was added to the wells. Plates are shaken for 4 minutes and incubated for 8 minutes in the dark prior to reading luminescence (LU) by using the CLARIOstar Multimode Plate Reader. The signal is proportional to the amount of ATP, which is directly proportional to the number of cells present in the culture.
Luminescence (RLU) values were normalized to DMSO control. Dose response is assessed by non-linear regression and IC50 calculation with the average of technical duplicate of percentage inhibition. IC50 values are reported as absolute IC50 values, being the concentration of test compound at the intersection of the concentration-response curves with T/C=50%. For calculation of mean IC50 values the geometric mean is used.

The target of another assay is T2, SALL4 (Homo sapiens, UniProt Q96SW2+Q9UJQ4).
T2 construct: SALL4 degradation in the Kelly cell line was investigated; endogenous in cells; host or cells: Kelly
Put plainly: SALL4 degradation assay, Kelly cell line (Western blot densitometry). To be noted: Kelly cells, 100 nM, 24 h, average from n ≥ 2 experiments. The protocol: as §3
(In general: Immunoblotting shows a protein as a band on a membrane.)

The target of the next assay is T3, Ikaros (IKZF1) (Homo sapiens, UniProt Q13422+Q96SW2).
T3 construct: Ikaros degradation in the H929 cell line was investigated; endogenous in cells; host or cells: H929
Put plainly: Ikaros degradation assay, H929 cell line. Conditions: NCI-H929, H929 cells, 24 h, read-out: % of IKZF1 protein reduction. In short, it runs like this:
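Cells were exposed to test compounds over a concentration range for 24 h at 37° C, 5% CO2, then lysed in RIPA buffer. Equal protein (BCA) was resolved by SDS-PAGE and immunoblotted. Band densitometry gave the protein levels used for evaluation.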

The next assay has as its system Hep3B cells. Put plainly: Cell viability CTG assay, Hep3B. To be noted: Homo sapiens, 72 h, 0.001-50 μM, read-out: Hep3B Geomean absolute IC50 by molecule, 72 H. In short, it runs like this:
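Cells exposed to compound at 0.25% v/v DMSO for 72 h (37° C., 5% CO2). ATP quantified by CellTiter-Glo luminescence, normalized to DMSO control. Absolute IC50 (T/C=50%) by non-linear regression on duplicate means; geometric mean used for averages.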

Where [3] appears, read: 9.5 μM, read-out: Test/Control viability at 9.5 μM.

T3 sequence (Q13422 whole entry): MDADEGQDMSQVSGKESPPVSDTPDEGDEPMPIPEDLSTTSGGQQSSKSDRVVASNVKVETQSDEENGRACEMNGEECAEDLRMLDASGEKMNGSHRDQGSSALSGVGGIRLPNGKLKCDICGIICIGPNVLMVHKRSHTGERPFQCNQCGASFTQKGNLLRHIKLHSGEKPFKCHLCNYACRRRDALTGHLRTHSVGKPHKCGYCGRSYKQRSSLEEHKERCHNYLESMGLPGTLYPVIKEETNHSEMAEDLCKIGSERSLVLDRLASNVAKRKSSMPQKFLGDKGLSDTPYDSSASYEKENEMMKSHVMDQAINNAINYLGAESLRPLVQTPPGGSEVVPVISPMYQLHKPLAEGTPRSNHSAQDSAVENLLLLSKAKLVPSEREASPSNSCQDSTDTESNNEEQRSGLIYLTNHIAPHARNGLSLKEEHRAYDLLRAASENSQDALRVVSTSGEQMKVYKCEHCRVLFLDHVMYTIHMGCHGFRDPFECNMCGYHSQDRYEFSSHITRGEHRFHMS
T3 sequence (Q96SW2 whole entry): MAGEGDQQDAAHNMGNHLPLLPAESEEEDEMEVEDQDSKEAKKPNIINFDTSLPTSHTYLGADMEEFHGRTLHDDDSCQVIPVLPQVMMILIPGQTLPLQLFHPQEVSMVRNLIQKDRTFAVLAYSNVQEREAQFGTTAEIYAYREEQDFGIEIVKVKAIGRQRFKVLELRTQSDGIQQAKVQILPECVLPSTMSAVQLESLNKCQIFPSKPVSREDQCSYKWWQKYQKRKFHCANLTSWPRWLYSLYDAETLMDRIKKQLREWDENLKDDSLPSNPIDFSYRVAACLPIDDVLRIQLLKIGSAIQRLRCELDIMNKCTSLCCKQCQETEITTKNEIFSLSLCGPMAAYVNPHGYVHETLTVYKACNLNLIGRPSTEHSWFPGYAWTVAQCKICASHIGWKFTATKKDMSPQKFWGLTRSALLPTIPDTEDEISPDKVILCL
T3 sequence (Q16531 whole entry partner): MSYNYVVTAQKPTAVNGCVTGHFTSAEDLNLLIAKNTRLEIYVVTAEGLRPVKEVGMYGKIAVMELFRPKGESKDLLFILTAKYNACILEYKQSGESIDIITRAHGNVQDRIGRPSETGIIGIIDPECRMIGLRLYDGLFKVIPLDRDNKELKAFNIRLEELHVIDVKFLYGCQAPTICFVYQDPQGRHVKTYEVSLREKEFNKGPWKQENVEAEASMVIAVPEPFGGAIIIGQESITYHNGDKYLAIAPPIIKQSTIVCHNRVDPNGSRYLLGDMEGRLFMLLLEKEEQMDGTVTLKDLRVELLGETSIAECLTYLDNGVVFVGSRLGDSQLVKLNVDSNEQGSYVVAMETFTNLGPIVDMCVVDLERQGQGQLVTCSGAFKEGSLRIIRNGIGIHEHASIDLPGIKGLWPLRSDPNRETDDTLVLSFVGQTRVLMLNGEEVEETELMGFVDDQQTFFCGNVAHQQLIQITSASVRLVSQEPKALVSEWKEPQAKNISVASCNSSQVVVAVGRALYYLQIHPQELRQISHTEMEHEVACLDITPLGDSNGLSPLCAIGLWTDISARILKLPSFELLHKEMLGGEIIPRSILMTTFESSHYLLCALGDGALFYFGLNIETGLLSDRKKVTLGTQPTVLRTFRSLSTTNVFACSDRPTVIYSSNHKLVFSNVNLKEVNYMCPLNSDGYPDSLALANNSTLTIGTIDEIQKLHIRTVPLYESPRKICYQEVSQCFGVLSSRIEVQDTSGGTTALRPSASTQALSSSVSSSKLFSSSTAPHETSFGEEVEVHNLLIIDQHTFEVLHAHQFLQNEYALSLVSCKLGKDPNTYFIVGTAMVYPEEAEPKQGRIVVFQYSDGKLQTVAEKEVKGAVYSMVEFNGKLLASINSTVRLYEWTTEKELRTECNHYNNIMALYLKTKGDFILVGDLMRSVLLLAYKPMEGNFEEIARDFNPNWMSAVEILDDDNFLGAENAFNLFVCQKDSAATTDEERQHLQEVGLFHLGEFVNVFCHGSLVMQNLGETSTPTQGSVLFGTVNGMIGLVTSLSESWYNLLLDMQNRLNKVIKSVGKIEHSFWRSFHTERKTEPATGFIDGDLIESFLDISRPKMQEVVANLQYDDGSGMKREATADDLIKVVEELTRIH
T1 sequence (Q9UKT9 whole entry): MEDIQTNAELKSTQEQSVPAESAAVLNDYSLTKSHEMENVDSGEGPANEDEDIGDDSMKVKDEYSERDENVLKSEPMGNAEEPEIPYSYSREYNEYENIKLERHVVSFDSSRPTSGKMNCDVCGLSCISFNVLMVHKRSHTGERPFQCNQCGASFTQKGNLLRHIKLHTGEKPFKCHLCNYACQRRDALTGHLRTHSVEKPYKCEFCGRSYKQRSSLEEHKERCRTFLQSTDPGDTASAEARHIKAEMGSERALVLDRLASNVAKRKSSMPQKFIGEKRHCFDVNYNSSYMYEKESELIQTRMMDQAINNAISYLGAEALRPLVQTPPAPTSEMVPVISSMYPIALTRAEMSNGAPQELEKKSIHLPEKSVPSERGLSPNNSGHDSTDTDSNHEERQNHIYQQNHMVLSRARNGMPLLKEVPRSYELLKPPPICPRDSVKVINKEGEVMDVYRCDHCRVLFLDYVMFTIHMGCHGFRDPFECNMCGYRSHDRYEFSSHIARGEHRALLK
T1 sequence (Q96SW2 whole entry): as the sequence (Q96SW2 whole entry) above
T1 sequence (Q16531 whole entry partner): as the sequence (Q16531 whole entry partner) above
T2 sequence (Q9UJQ4 whole entry): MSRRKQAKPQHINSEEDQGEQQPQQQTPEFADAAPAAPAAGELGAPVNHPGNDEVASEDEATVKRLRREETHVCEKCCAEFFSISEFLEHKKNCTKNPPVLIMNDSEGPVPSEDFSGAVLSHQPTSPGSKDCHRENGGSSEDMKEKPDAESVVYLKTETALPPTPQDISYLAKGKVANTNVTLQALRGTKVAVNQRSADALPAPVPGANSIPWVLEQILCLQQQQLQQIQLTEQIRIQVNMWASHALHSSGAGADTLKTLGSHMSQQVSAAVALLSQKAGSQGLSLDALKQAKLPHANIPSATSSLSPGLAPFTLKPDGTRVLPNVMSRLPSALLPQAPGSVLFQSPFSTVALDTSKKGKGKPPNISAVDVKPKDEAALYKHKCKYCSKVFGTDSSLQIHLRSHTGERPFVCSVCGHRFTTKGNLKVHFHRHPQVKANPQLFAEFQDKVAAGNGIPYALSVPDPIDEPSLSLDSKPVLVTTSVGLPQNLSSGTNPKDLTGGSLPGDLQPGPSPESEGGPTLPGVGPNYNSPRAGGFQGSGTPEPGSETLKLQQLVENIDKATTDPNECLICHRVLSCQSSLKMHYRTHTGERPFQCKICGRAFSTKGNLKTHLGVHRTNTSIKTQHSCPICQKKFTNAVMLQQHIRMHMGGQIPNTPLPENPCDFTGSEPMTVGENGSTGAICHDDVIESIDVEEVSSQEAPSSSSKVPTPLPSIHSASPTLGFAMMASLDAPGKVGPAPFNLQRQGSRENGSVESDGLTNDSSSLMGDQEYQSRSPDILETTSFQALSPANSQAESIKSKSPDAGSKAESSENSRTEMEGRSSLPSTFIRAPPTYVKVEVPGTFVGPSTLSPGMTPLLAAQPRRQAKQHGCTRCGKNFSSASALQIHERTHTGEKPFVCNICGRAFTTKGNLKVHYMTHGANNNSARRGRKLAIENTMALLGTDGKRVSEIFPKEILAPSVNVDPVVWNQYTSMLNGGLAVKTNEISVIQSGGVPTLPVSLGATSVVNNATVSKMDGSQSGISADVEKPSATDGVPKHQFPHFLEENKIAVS
T2 sequence (Q96SW2 whole entry): as the sequence (Q96SW2 whole entry) above
T2 sequence (Q16531 whole entry partner): as the sequence (Q16531 whole entry partner) above

For the compound `NCc1ccc2c(c1)CN(C1CCC(=O)NC1=O)C2=O` (stereo not shown) [Compound 1, 3-(5-(aminomethyl)-1-oxoisoindolin-2-yl)piperidine-2,6-dione], the IC50 (commonly the point on the concentration scale where inhibition reaches its midpoint) in the assay on 22Rv1 (read-out: Absolute IC50) was at least 30000 nM; with MOLP-2 (read-out: Absolute IC50), 100 to 1000 nM; in the assay with UOC-M1 (read-out: Absolute IC50), at most 100 nM; with IM-9 it was above 30000 nM; with HEP-3B (read-out: Absolute IC50) it was 100 to 1000 nM; with Kelly cells [2] it was 100 to 1000 nM. In the assay with Hep3B cells, the IC50 is at most 100 nM. Moreover, the viability at 9.5 µM was at most 60% with 22Rv1 (setting [3]), at most 60% in the assay with MOLP-2 (setting [3]), at most 30% in the assay with UOC-M1 (setting [3]) and at most 30% with HEP-3B (setting [3]). Also, the “% of IKZF3 protein reduction” value on Aiolos (IKZF3) is given as “C (C represents 0-24% of IKZF1 protein reduction)”. For the same compound, the “survival of the cells (colony formation)” value in the assay with Kelly cells [1] was “in most cases inhibited”. Moreover, the “% of SALL4 protein reduction” value on SALL4 is given as above 80%. For the same compound, the inhibition at 10 µM at Ikaros (IKZF1) (10 uM) lay within 0 to 24%. Moreover, on Ikaros (IKZF1) (20 uM), the inhibition at 20 µM was 0 to 24%.
